{
  "source": "patent US8846711B2",
  "about": "“Heterocyclic acrylamides and their use as pharmaceuticals” (Fab Pharma S.A.S., priority 2009, dated 2014)",
  "key": {"S. aureus CIP 54.146": {"tested_on": "S. aureus CIP 54.146", "test": "MIC determination using broth microdilution method", "type": "cell-based", "details": "Staphylococcus aureus, CIP54 / MSSA, read-out: MIC (μg/ml) S. aureus CIP 54.146", "experimental": "The compounds of the invention are useful antibacterial agents having a selective spectrum of activity in vitro against bacterial strains relying on FabI and related targets. […] The activity is presented as Minimum Inhibitory Concentration (MIC) expressed in μg/ml and was determined using broth microdilution or Agar dilution methods.\nAntibacterial activity was determined on strains from Mutabilis internal collection.\nThis protocol is compliant with Clinical Laboratory Standards Institute (CLSI) methodology as described in M7-A7 document of the CLSI. The compound to be tested is diluted according to a geometric series of reason 2 in pure DMSO. Dilutions are transferred in sterile polystyrene microplates, followed by mid-log phase bacteria in cation-adjusted Muller-Hinton broth (ca-MHB, Fluka, Reference 90922) with a final inoculum of 5×10^5 cfu/ml. Microplates are incubated overnight at 35° C. MIC is defined as the lowest concentration of antimicrobial agent that completely prevents visible bacterial growth. All manipulations, but compound handling (in pure DMSO), are performed under sterile conditions. The final concentration of DMSO in the plates is 2%."}, "human albumin (HSA)": {"target": "human albumin (HSA) (Homo sapiens (Human), UniProt P02768)", "sequence (P02768 25-609)": "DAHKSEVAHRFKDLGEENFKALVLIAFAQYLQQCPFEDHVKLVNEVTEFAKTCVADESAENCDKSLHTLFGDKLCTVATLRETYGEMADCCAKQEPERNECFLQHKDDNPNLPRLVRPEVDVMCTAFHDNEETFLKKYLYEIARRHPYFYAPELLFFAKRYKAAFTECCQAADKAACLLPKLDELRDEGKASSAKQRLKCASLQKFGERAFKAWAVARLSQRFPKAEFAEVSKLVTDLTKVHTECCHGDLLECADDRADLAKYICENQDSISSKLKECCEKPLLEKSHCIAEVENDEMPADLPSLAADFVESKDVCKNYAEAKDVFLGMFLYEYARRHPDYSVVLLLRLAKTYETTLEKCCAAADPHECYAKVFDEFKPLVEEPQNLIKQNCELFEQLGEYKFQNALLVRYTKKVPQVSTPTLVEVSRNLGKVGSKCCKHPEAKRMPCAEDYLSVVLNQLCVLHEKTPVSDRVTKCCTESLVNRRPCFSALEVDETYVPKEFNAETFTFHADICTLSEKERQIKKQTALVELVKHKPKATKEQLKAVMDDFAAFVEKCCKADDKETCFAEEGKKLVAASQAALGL", "test": "HSA binding analysis using a chiral HSA column", "type": "in vitro ADME", "excerpt": "The test system used in this analysis was an HSA chiral column.\nThe relationship between the retention time (Tr) and percentage of albumin binding (AB %) depended on the dead time (TO) and the capacity factor (k′): AB%=[k′/(k′+1)]*100\nHSA binding was classified as follows:\n75%≦AB<90%: Moderate binding"}, "[1]": {"target": "recombinant S. aureus FabI enzyme (Staphylococcus aureus (strain MRSA252), UniProt Q6GI75)", "test": "FabI inhibition, fluorescence based assay", "type": "biochemical", "details": "in vitro", "experimental": "Compound inhibitory activity of FabI enzyme is measured in vitro by the […] determination using a fluorescence based assay.\nThe protein FabI from S. aureus is prepared and purified using standard methods for recombinant protein expression after cloning of the gene in a prokaryotic expression vector.\nThe biochemical activity of the FabI enzyme is assessed using the following method.\nThe assay buffer “AB” contained 50 mM ADA (N-(2-acetamido)iminodiacetic acid monosodium salt) pH 6.5, 1 mM dithiothreitol, 0.006% Triton-X100 and 50 mM NaCl.\nThe following components are added in a white polystyrene Costar plate (Ref 3912) up to a final volume of 55.5 μL: 1.5 μL DMSO or inhibitor dissolved in DMSO and 54 μL of a FabI/NADPH/NADP+ mixture in AB. After 60 min of pre-incubation at room temperature, the reaction is started by addition of 5 μL of trans-2-octenoyl N-acetylcysteamine thioester (t-o-NAC) to a final volume of 60.5 μL. This reaction mixture is then composed of 2 nM FabI, 40 μM NADPH (Sigma, N7505), 10 μM NADP+ (Sigma, N5755), 100 μM t-O-NAC and compound at defined concentration. Fluorescence intensity of NADPH (λex=360 nm, […]) is measured immediately after t-O-NAC addition (T0), and approximately 50 min later (T50) by a Fluostar Optima (BMG) so as to achieve ±30% of NADPH conversion. Enzyme activity is calculated by first subtracting TO signal to T50 and then subtracting background signal (FabI=0). Percentages of inhibition are calculated against untreated samples (Inhibitor=0) and IC50 are fitted to a classical Langmuir equilibrium model using XLFIT (IDBS)."}, "E. coli (ATCC 25922)": {"tested_on": "E. coli (ATCC 25922)", "test": "MIC determination using susceptibility method (broth microdilution)", "type": "cell-based", "details": "Escherichia coli, ATCC25922, read-out: MIC (μg/ml) E. coli (ATCC 25922)"}, "C. albicans (ATCC 90028)": {"tested_on": "C. albicans (ATCC 90028)", "test": "MIC determination using susceptibility method (broth microdilution)", "type": "cell-based", "details": "Candida albicans, ATCC90028, read-out: MIC (μg/ml) C. albicans (ATCC 90028)"}, "[2]": {"tested_on": "Staphylococcus aureus strain ATCC 29213", "test": "In vivo antibacterial activity, thigh infection model in neutropenic Swiss mice", "details": "100 mg/kg orally, 1.5 h after infection, FIG. 1"}},
  "data": [
    {"smiles": "O=C1CCc2cc(/C=C/C(=O)N3CC(OCc4cccs4)C3)cnc2N1", "note": "[Example 12, 6-{(1E)-3-Oxo-3-[3-(2-thienylmethoxy)azetidin-1-yl]prop-1-en-1-yl}-3,4-dihydro-1,8-naphthyridin-2(1H)-one]", "values": [
      {"measurement": "MIC", "setting": "S. aureus CIP 54.146", "result": 4, "unit": "µg/mL"},
      {"measurement": "HSA Binding (%)", "setting": "human albumin (HSA); AB%=[k′/(k′+1)]*100, chiral HSA column, pH 7.0", "result": 45.2, "unit": "%"},
      {"measurement": "k′", "setting": "human albumin (HSA); capacity factor, k′=(Tr−T0)/T0", "result": 0.826},
      {"measurement": "Conclusion (HSA binding class)", "setting": "human albumin (HSA); chiral HSA column", "result": "Low binding (AB<75%: Low binding)"},
      {"measurement": "Tr", "setting": "human albumin (HSA); retention time on chiral HSA column, pH 7.0, 37° C.", "result": 1.410, "unit": "min"},
      {"measurement": "affinity in vitro to human albumin", "setting": "human albumin (HSA); text summary of Table 7", "result": "low affinity"},
      {"measurement": "IC50", "setting": "[1]", "result": 0.013, "unit": "µM"},
      {"measurement": "MIC", "setting": "E. coli (ATCC 25922)", "result": "> 128", "unit": "µg/mL"},
      {"measurement": "MIC", "setting": "C. albicans (ATCC 90028)", "result": "> 128", "unit": "µg/mL"},
      {"measurement": "in vivo antibacterial activity (bacterial burden in the thigh of infected mice)", "setting": "[2]", "result": "able to protect mice against thigh dissemination"}
    ]}
  ]
}
